Experimental findings from PubChem BioAssay (NCI) are described below.

What all share (test): inhibition of tumour cell growth, NCI panel, 48 h
Assay [1] relates to HCT-15 colon.
The test system of assay [2] is HOP-62 NSCLC.
The test system of assay [3] is HT29 colon.
Assay [4] deals with MDA-MB-231 breast.
Assay [5] concerns MDA-MB-435.
Assay [6] has as its system NCI-H226 lung.
Assay [7] relates to NCI-H460 lung.
Assay [8] deals with RPMI-8226 leukemia.
The subject of assay [9] is SK-MEL-5 melanoma.
The test system of assay [10] is T-47D breast.

Each structure is given as a SMILES string.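 Briefly, cells in 96-well plates were exposed to five compound concentrations for 48 h, and endpoints were estimated by linear interpolation. GI50 = concentration required for 50% inhibition of growth. TGI is the concentration that stops growth completely.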

Regarding `Nc1ccc(N=Nc2ccccc2)c(N)n1`, the GI50 in assay [1] is 35.8 µM; in assay [2] it was 33.9 µM; in assay [3] it was 34.5 µM; in assay [4], 18 µM; in assay [5] it was 22.4 µM; in [6], 62.6 µM. For the same compound, the GI50 is 29.1 µM in [7], 36.2 µM in assay [8], 26.3 µM in assay [9] and 23.4 µM in [10]. Further, the TGI in assay [1] is greater than 100 µM; in assay [2], greater than 100 µM; in [3], greater than 100 µM; in [4] it was 73.7 µM; in [5], 80.1 µM; in assay [6], greater than 100 µM. The TGI in assay [7] was 97.4 µM; in assay [8], greater than 100 µM; in [9], greater than 100 µM; in assay [10], greater than 100 µM.
In the case of `NC(=O)C(Br)CBr` (stereo not given), the GI50 in assay [1] was 1.46 µM; in assay [2] it was 18.4 µM; in assay [3], 1.59 µM; in assay [4], 2.3 µM; in assay [5], 1.74 µM; in assay [6] it was 7.68 µM. Also, the GI50 in assay [7] was 3.56 µM; in assay [8] it was 2.82 µM; in assay [9], 4.08 µM; in assay [10], 1.76 µM. Besides, the TGI in [1] was found to be 3.39 µM; in assay [2] it was 43.5 µM; in assay [3], 9.42 µM; in assay [4], 4.76 µM; in assay [5], 4.33 µM; in [6], 27.1 µM. Further, the TGI is 13.5 µM in [7], 11.9 µM in [8], 14.3 µM in [9] and 6.4 µM in assay [10].
In the case of `COc1ccc(Nc2ccnc(NCCNc3ccnc4cc(Cl)ccc34)n2)cc1`, the GI50 was 1.23 µM in assay [1]; 3.56 µM in assay [2]; 0.546 µM in [3]; 2.01 µM in assay [4]; 1.5 µM in assay [5]; 7.29 µM in [6]. Besides, the GI50 in [7] is 2.36 µM; in [8], 1.55 µM; in assay [9] it was 1.55 µM; in [10], 1.61 µM. Besides, the TGI in [1] turned out to be 4.03 µM; in assay [2], 18.4 µM; in [3], 8.28 µM; in [4], 6.71 µM; in assay [5] it was 2.9 µM; in assay [6], 21.1 µM. Also, the TGI in assay [7] came to 12.8 µM; in assay [8], 4.84 µM; in [9], 2.95 µM; in [10] it was 5.72 µM.
`CCN(CC)c1ccc(N=C2C=C(C(=O)Nc3ccc(S(C)(=O)=O)cc3)C(=O)c3ccccc32)c(C)c1`: the GI50 in assay [1] was 5.28 µM; in assay [2] it was 91.7 µM; in assay [3], greater than 100 µM; in assay [4], 4.53 µM; in [5], 7.49 µM; in [6], greater than 100 µM. Further, the GI50 in assay [7] was 35 µM; in assay [8] it was 4.96 µM; in [9] it was 5.84 µM; in assay [10] it was 51.9 µM. For the same compound, the TGI is greater than 100 µM in assay [1]; greater than 100 µM in [2]; greater than 100 µM in assay [3]; greater than 100 µM in assay [4]; 54.8 µM in assay [5]; greater than 100 µM in [6]. Also, the TGI in assay [7], in [8], in [9] and in [10] was greater than 100 µM in each case.
Turning to `CCON=C1C(C)(C)C(C)(C)C(C)(C)C1(C)C`, the TGI in assay [1], in [2], in [3], in assay [4], in assay [5] and in assay [6] was greater than 100 µM each time. Besides, the TGI in assay [7], in [8], in assay [9] and in assay [10] was greater than 100 µM each time.
As to `C[C@@H]1COCCN1c1nc(-c2cnc(N)cc2C(F)F)nc(N2[C@H](C)COC[C@@H]2C)n1`, the GI50 in [1] was 0.236 µM; in assay [2], 0.332 µM; in assay [3] it was 0.349 µM; in assay [4] it was 0.412 µM; in assay [5], 0.321 µM; in assay [6], 0.2 µM. The GI50 in assay [7] is 0.179 µM; in assay [8] it was 0.174 µM; in assay [9], 0.307 µM; in assay [10], 0.0422 µM. The TGI was determined as 12.4 µM in assay [1]; 13.2 µM in assay [2]; 12.9 µM in [3]; 20.8 µM in assay [4]; 10.6 µM in [5]; 11.2 µM in [6]. Besides, the TGI was determined as 12.1 µM in assay [7], 4.28 µM in assay [8], 2.03 µM in assay [9] and 0.644 µM in [10].
For `O=C(Cn1c(=O)c(-c2ccccc2)nc2ccccc21)c1cccnc1`, the GI50 in [1], in assay [2], in assay [3], in assay [4], in assay [5] and in assay [6] was greater than 100 µM throughout. The GI50 in assay [7], in assay [8], in [9] and in assay [10] was greater than 100 µM in each case. Besides, the TGI in assay [1], in [2], in assay [3], in assay [4], in assay [5] and in [6] was greater than 100 µM each time. Further, the TGI in assay [7], in assay [8], in assay [9] and in [10] was greater than 100 µM in each case.
As for `Nc1nc2c(c3ncccc13)C(c1ccc(Cl)c(Cl)c1)Cc1ncccc1-2` (stereo not given), the GI50 in assay [1] was 4.36 µM; in assay [2] it was 2.96 µM; in [3], 3.22 µM; in [4], 4.05 µM; in [5], 0.867 µM; in assay [6], 16.6 µM. For the same compound, the GI50 is 3.47 µM in assay [7], 3.81 µM in assay [8], 3.99 µM in assay [9] and 2.39 µM in assay [10]. Further, the TGI in [1] is 16.1 µM; in assay [2], 14 µM; in assay [3], 11.9 µM; in assay [4], 17.1 µM; in assay [5] it was 2.95 µM; in assay [6], 41.5 µM. For the same compound, the TGI in [7] amounted to 13 µM; in [8], 34 µM; in assay [9] it was 14.8 µM; in assay [10], 13.4 µM.
